Reference: PMC9434784, “Synthesis and In Vitro Evaluation of a Set of 6-Deoxy-6-thio-carboranyl D-Glucoconjugates Shed Light on the Substrate Specificity of the GLUT1 Transporter” (ACS Omega, 2022)
Read-outs that look alike come from different tables or passages of the source. One block for each compound: values may come before it.

Assays:
[1] = target: T1, GLUT1 (Homo sapiens, UniProt P11166); test: GLUT1 affinity cis-inhibition assay against [14C]-D-glucose in CAL 27 cells; assay type: cell-based; conditions: competition with 1.8 μM [14C]-D-glucose, 5 min, room temperature, 0.1–1800 μM
T1 construct: host or cells: CAL 27 human squamous carcinoma cells
T1 sequence (P11166 1-492): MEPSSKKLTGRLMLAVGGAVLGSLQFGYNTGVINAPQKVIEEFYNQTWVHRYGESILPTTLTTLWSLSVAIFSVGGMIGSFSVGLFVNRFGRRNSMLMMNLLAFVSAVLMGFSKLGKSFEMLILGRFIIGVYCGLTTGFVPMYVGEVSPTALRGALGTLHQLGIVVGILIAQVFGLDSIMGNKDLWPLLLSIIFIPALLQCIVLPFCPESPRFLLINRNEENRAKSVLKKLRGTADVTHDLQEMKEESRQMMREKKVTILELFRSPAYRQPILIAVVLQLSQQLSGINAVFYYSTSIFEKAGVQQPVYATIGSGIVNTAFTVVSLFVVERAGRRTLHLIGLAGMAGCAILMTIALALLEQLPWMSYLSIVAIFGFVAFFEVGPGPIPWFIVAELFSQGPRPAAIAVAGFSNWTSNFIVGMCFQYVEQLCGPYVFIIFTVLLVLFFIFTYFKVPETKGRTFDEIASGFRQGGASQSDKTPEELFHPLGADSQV
Description: From the drug development perspective, it is central to understand the molecular interactions between the ligand and the transporter. For example, in a BNCT context, the selectivity and success of the treatments are directly related to the preferential uptake of boron-10 enriched delivery agents by cancer cells. In our case, the GLUT1 transporter, which is overexpressed on various cancers, is responsible for the uptake process. The clinical validity and therapeutic utility of the approach stem from the “Warburg effect”.[7],[8] Cancer cells have an impaired D-glucose metabolism while simultaneously displaying a high proliferation rate and energy demand. Together, these factors contribute to an increased D-glucose uptake in cancer cells compared to healthy cells and offer a basis for pursuing a GLUT1-targeting strategy in BNCT. Based on the available tumor imaging data obtained through the use of FDG,[38] head and neck cancers represent a promising target for our approach. Therefore, we employed the human squamous carcinoma cell line CAL 27 as a suitable model for the in vitro assessment of GLUT1-targeting delivery agents. In addition to being a relevant head and neck cancer cell line of human origin, the GLUT1-transporter has been indicated to play a key role in the aberrant growth of CAL 27 cells.[39],[40] In our previous work, we validated the GLUT1-function, quantified the GLUT1-expression, and developed a cis-inhibition assay for determining the relative affinities of GLUT1-targeting delivery agents to GLUT1 in the CAL 27 cell line.[13],[14] To allow comparison of the results of the present study to our earlier ones, we used the same protocols herein. The fully deprotected glucoconjugates 1–4 were subjected to the cis-inhibition assay, i.e., they were forced to compete for the transporter against radiolabeled [^14C]-D-glucose in order to assess their targeting capabilities from a functional point of view. A high GLUT1 affinity, i.e., a low IC50 value, is characteristic of delivery agents that are able to target the transporter in the presence of the natural substrate D-glucose in a biological milieu. […] Large differences in the IC50 values were thus noted. […] These two delivery agents display acceptable GLUT1-targeting capabilities. […] While the trend is clear, the results are surprising. The question that arises is as follows: which underlying factors contribute to these notable deviations uncovered through the experimental cis-inhibition assay?
The GLUT1 affinity assay was performed according to our previously developed protocol.[13],[14] […] Liquid scintillation counter (MicroBeta^2 counter, PerkinElmer, Waltham, MA, USA) was used to assess the radioactivity, and the IC50 values were determined by nonlinear regression analysis.

[2] = test system: CAL 27 cell line; test: Cellular uptake (boron delivery capacity) by ICP-MS boron quantification; assay type: cell-based, human; conditions: for behaviour at GLUT1 inferred from affinity and uptake profiles: CAL 27; for Vmax (boron uptake, Michaelis–Menten) / Km: 10–400 μM; for Km: read-out: Km (boron uptake, Michaelis–Menten)
Experimental: The uptake studies were performed according to our recently reported protocol.[13],[14] […] This, however, is not a concern, as the cell-killing effect caused by the thermal neutron beam in actual BNCT treatments has a destructive radius reminiscent to the diameter of a single cell (5–9 μm in biological tissue).[46] In the uptake studies, the concentration range 10–400 μM was screened. The incubation times 5, 30, and 120 min were chosen due the optimal performance of [^14C]-D-glucose under these conditions. Since inductively-coupled plasma mass spectrometry (ICP-MS) is somewhat insensitive when it comes to quantification of the boron content, thoroughly washed cells from four wells were combined and digested before being subjected to the analysis. […] However, we noticed that the Km values were consistently higher with the S-linked carboranyl species compared to the O-linked carboranylmethyl species.[14] The higher Km value may imply that there are additional transport mechanisms involved in the uptake of the S-series delivery agents. More work is needed to ascertain these factors. Regardless, the different Km values may likewise indicate that a greater concentration, which may no longer be clinically relevant, would be required for the S-series species to reach Vmax.
The cells were first pre-incubated. The substrates were then added in different concentration (10–400 μM in 250 μL of HBSS) and incubation was continued for 5, 30, and 120 min at room temperature. Ice-cold buffer was used to quench the reaction at the set time points. Washing and lysis was carried out as mentioned above. A combined sample was prepared in an Eppendorf tube by addition of cell lysate from four wells. The combined sample was centrifuged at +4 °C. From the supernatant of every sample, 800 μL was taken and digested in 1.0 mL of HNO3 (TraceMetal grade, Fisher Chemical) for 24 h. Milli-Q water (USF Elga Purelab Ultra) was added until the sample volume was 10 mL, and the boron contents were assessed in triplicates by ICP-MS. More details on the ICP method can be found in our earlier work.[13],[14] PerkinElmer Syngistix Data Analysis Software was used for data analysis and GraphPad Prism v.5.03 software (GraphPad Software, San Diego, Ca, USA) for statistical analysis.

- IC50 [1]: 127 µM
Compound: 6-Deoxy-6-thio-(1,2-dicarba-closo-dodecaboran-1-yl)-D-glucopyranose [Compound 1]
- behaviour at GLUT1 inferred from affinity and uptake profiles [2]: seems to act as a GLUT1-antagonist
- Vmax (boron uptake, Michaelis–Menten) ([2]; CAL 27, 5 min incubation): 1.34 μg B/mg protein
- Km ([2]; CAL 27, 5 min incubation): 1830 µM
- Vmax (boron uptake, Michaelis–Menten) ([2]; CAL 27, 30 min incubation): 0.83 μg B/mg protein
- Km ([2]; CAL 27, 30 min incubation): 556 µM

- IC50 [1]: 982 µM
Compound: 6-Deoxy-6-thio-(1,2-dicarba-closo-dodecaboran-9-yl)-D-glucopyranose [Compound 3]
- Vmax (boron uptake, Michaelis–Menten) ([2]; CAL 27, 5 min incubation): 0.03 μg B/mg protein
- Km ([2]; CAL 27, 5 min incubation): 110 µM

- IC50 [1]: 121 µM
Compound: 6-Deoxy-6-thio-(1,7-dicarba-closo-dodecaboran-1-yl)-D-glucopyranose [Compound 2]
- behaviour at GLUT1 inferred from affinity and uptake profiles [2]: enters the cells through the transporter at an acceptable rate
- boron delivery capacity compared to the other delivery agents screened (BPA, BSH) ([2]; CAL 27, 10–400 μM, 5, 30 and 120 min): fivefold higher delivery capacity
- Vmax (boron uptake, Michaelis–Menten) ([2]; CAL 27, 5 min incubation): 6.60 μg B/mg protein
- Km ([2]; CAL 27, 5 min incubation): 1810 µM
- Vmax (boron uptake, Michaelis–Menten) ([2]; CAL 27, 30 min incubation): 1.80 μg B/mg protein
- Km ([2]; CAL 27, 30 min incubation): 237 µM
- Vmax (boron uptake, Michaelis–Menten) ([2]; CAL 27, 120 min incubation): 2.19 μg B/mg protein
- Km ([2]; CAL 27, 120 min incubation): 208 µM

Compound: OC[C@H]1OC(O)[C@H](O)[C@@H](O)[C@@H]1O (stereo partly drawn) [D-glucose, reference compound]
- IC50 [1]: > 1000 µM
